We go through 7 compounds from PubChem BioAssay (NCI).

The structures appear in SMILES notation.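 96-well plates; 48 h exposure; 5 concentrations. Endpoints by linear interpolation between flanking doses. Not reached: highest tested concentration assigned. At the GI50, growth is halved. TGI denotes the concentration required for complete inhibition of growth.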

Test systems include SK-OV-3 ovarian; NCI-H522 lung; NCI-H460 lung; OVCAR-8 ovarian; HOP-62 NSCLC; MDA-MB-435; HL-60(TB) leukemia; MCF7 breast; KM12 colon; T-47D breast.
Assay in all cases: NCI-60 cell line screen, 48 h

Regarding `COc1ccc(C2C3=C(COC3=O)N(CCO)c3cc4c(cc32)CCC4)cc1OC` (stereo not drawn), the GI50 with SK-OV-3 ovarian is 0.746 µM; in the test on NCI-H522 lung it was 0.514 µM; in the test with NCI-H460 lung it was 0.336 µM; in the test on OVCAR-8 ovarian, 1.74 µM; in the test on HOP-62 NSCLC, 1.08 µM; in the test on MDA-MB-435, 0.132 µM. The GI50 in the test on HL-60(TB) leukemia is 0.328 µM; in the test on MCF7 breast it was 0.176 µM; with KM12 colon, 0.297 µM; in the test on T-47D breast it was 0.797 µM. Besides, the TGI was over 50 µM with SK-OV-3 ovarian; over 29.5 µM in the test on NCI-H460 lung; over 50 µM in the test on OVCAR-8 ovarian; over 50 µM with HOP-62 NSCLC; 0.448 µM with MDA-MB-435; over 10.5 µM in the test on HL-60(TB) leukemia. The TGI in the test with MCF7 breast, in the test with KM12 colon and with T-47D breast was over 50 µM each time.

As to `COc1cc2cc(Oc3ccc(NC(=O)Nc4cc(C(F)(F)F)cc(C(F)(F)F)c4)cc3)c(C)nc2cc1OCCN1CCCCC1`, the GI50 in the test with SK-OV-3 ovarian is 2.04 µM; in the test on NCI-H522 lung, 1.72 µM; in the test on NCI-H460 lung, 1.79 µM; with OVCAR-8 ovarian, 1.87 µM; with HOP-62 NSCLC, 1.64 µM; in the test on MDA-MB-435, 1.78 µM. Further, the GI50 was 2.25 µM with HL-60(TB) leukemia, 1.68 µM in the test with MCF7 breast, 1.91 µM in the test with KM12 colon and 1.85 µM with T-47D breast. Besides, the TGI in the test with SK-OV-3 ovarian came out at 3.9 µM; with NCI-H522 lung, 3.46 µM; in the test on NCI-H460 lung, 3.35 µM; in the test with OVCAR-8 ovarian, 3.72 µM; in the test with HOP-62 NSCLC it was 3.3 µM; in the test on MDA-MB-435, 3.22 µM. Also, the TGI with HL-60(TB) leukemia was found to be 4.67 µM; in the test on MCF7 breast, 3.43 µM; in the test on KM12 colon, 3.47 µM; in the test on T-47D breast, 3.77 µM.

Turning to `O=C(N/N=C\c1cc(Br)cc(Br)c1O)N/N=C/c1cc(Br)cc(Br)c1O`, the GI50 is 5.21 µM in the test on SK-OV-3 ovarian; 3.08 µM in the test on NCI-H522 lung; 3.11 µM in the test on NCI-H460 lung; 2.88 µM with OVCAR-8 ovarian; 8.99 µM in the test on HOP-62 NSCLC; 2.67 µM in the test with MDA-MB-435. In addition, the GI50 is 1.28 µM in the test with HL-60(TB) leukemia, 2.89 µM in the test with MCF7 breast, 2.9 µM with KM12 colon and 4.02 µM in the test on T-47D breast. Moreover, the TGI with SK-OV-3 ovarian came to 16.6 µM; in the test with NCI-H522 lung, 13.8 µM; in the test with NCI-H460 lung it was 11.5 µM; with OVCAR-8 ovarian, 16.7 µM; in the test with HOP-62 NSCLC it was 22.8 µM; in the test with MDA-MB-435 it was 17.8 µM. The TGI with HL-60(TB) leukemia is 4.76 µM; in the test on MCF7 breast, 12.3 µM; in the test on KM12 colon, 11.7 µM; in the test with T-47D breast, 17.7 µM.

As to `CCc1cc(Nc2nccc(-c3c(-c4ccc(OC)c(C(=O)Nc5c(F)cccc5F)c4)nc4ccccn34)n2)c(OC)cc1N1CCC(N2CCN(S(C)(=O)=O)CC2)CC1`, the GI50 was over 100 µM in the test with SK-OV-3 ovarian; over 100 µM with NCI-H522 lung; over 71.7 µM in the test on NCI-H460 lung; over 100 µM in the test with OVCAR-8 ovarian; over 100 µM with HOP-62 NSCLC; over 100 µM in the test on MDA-MB-435. For the same compound, the GI50 in the test with HL-60(TB) leukemia, in the test on KM12 colon and with T-47D breast was over 100 µM each time. For the same compound, the TGI in the test with SK-OV-3 ovarian, in the test with NCI-H522 lung, with NCI-H460 lung, in the test on OVCAR-8 ovarian, in the test with HOP-62 NSCLC and in the test on MDA-MB-435 was over 100 µM each time. The TGI in the test with HL-60(TB) leukemia, in the test with MCF7 breast, in the test with KM12 colon and in the test on T-47D breast was over 100 µM in each case.

`S=C1NC2=C(CCOc3c2ccc2ccccc32)C(c2ccc(Cl)cc2)N1` (stereo not drawn): the GI50 in the test with SK-OV-3 ovarian was over 100 µM; in the test with NCI-H522 lung, 25.1 µM; in the test with NCI-H460 lung, 30.8 µM; in the test on OVCAR-8 ovarian, 44.7 µM; in the test on HOP-62 NSCLC it was 70.8 µM; in the test with MDA-MB-435, 41.5 µM. Further, the GI50 with HL-60(TB) leukemia was 32.7 µM; in the test with MCF7 breast, 16.2 µM; in the test with KM12 colon it was 47.5 µM; in the test with T-47D breast it was 3.36 µM. Besides, the TGI with SK-OV-3 ovarian, with NCI-H522 lung, in the test with NCI-H460 lung, in the test with OVCAR-8 ovarian, in the test on HOP-62 NSCLC and in the test with MDA-MB-435 was over 100 µM throughout. The TGI in the test on HL-60(TB) leukemia was over 100 µM; in the test with MCF7 breast, over 100 µM; in the test on KM12 colon it was over 100 µM; with T-47D breast, 17.2 µM.

In the case of `CC[C@@]1(O)C(=O)N(CCN(C)C)Cc2c1cc1n(c2=O)Cc2cc3ccccc3nc2-1`, the GI50 is over 100 µM in the test with SK-OV-3 ovarian; 7.05 µM with NCI-H522 lung; 1.82 µM with NCI-H460 lung; 12.5 µM in the test with OVCAR-8 ovarian; 5.21 µM with HOP-62 NSCLC; over 100 µM in the test on MDA-MB-435. Besides, the GI50 is 5.4 µM in the test with HL-60(TB) leukemia, 14.9 µM with MCF7 breast, 12.5 µM with KM12 colon and 21 µM in the test on T-47D breast. The TGI in the test on SK-OV-3 ovarian is over 100 µM; in the test with NCI-H522 lung it was over 89 µM; in the test with NCI-H460 lung, over 83.1 µM; with OVCAR-8 ovarian, over 100 µM; with HOP-62 NSCLC, over 100 µM; in the test on MDA-MB-435, over 100 µM. For the same compound, the TGI was over 100 µM in the test with HL-60(TB) leukemia, over 100 µM in the test with MCF7 breast, over 54.1 µM with KM12 colon and over 100 µM in the test on T-47D breast.

Consider `O=C(CN1CCN(c2cc3c(cc2F)c(=O)c(C(=O)O)cn3C2CC2)CC1)Nc1ccc(C(=O)/C=C/c2ccccc2)cc1`, for which the GI50 with SK-OV-3 ovarian is 27.3 µM; in the test on NCI-H522 lung, 1.7 µM; with NCI-H460 lung, 3.17 µM; with OVCAR-8 ovarian, 3.07 µM; in the test with HOP-62 NSCLC, 4.46 µM; with MDA-MB-435, 2.94 µM. Besides, the GI50 with HL-60(TB) leukemia is 9.44 µM; with MCF7 breast, 3.52 µM; in the test on KM12 colon, 4.11 µM; with T-47D breast, 6.66 µM. Besides, the TGI in the test with SK-OV-3 ovarian was over 100 µM; with NCI-H522 lung, 7.78 µM; in the test on NCI-H460 lung, over 100 µM; in the test on OVCAR-8 ovarian it was over 100 µM; in the test on HOP-62 NSCLC it was over 100 µM; in the test with MDA-MB-435, over 100 µM. The TGI in the test with HL-60(TB) leukemia, in the test on MCF7 breast, with KM12 colon and with T-47D breast was over 100 µM each time.
